# Numbers after ± are expanded uncertainties.
# Details: Liquid
compound,measurement,setting,value
S=C=S [carbon disulfide],vapor or sublimation pressure,273.08 K,17 ± 12 kPa
same,vapor or sublimation pressure,298.4 K,49 ± 12 kPa
same,vapor or sublimation pressure,323.5 K,116 ± 12 kPa
same,vapor or sublimation pressure,348.45 K,240 ± 12 kPa
S [hydrogen sulfide],vapor or sublimation pressure,273.08 K,1033 ± 17 kPa
same,vapor or sublimation pressure,298.4 K,2024 ± 26 kPa
same,vapor or sublimation pressure,323.5 K,3564 ± 44 kPa
same,vapor or sublimation pressure,348.45 K,5812 ± 72 kPa
CCSC [2-thiabutane],vapor or sublimation pressure,247.76 K,1 kPa
same,vapor or sublimation pressure,272.96 K,6 kPa
same,vapor or sublimation pressure,293.23 K,17 ± 12 kPa
same,vapor or sublimation pressure,293.41 K,17 ± 12 kPa
same,vapor or sublimation pressure,313.33 K,40 ± 12 kPa
same,vapor or sublimation pressure,313.35 K,40 ± 12 kPa
CCS [ethanethiol],vapor or sublimation pressure,272.94 K,25 ± 12 kPa
same,vapor or sublimation pressure,293.36 K,59 ± 12 kPa
same,vapor or sublimation pressure,313.41 K,121 ± 12 kPa
CS [methanethiol],vapor or sublimation pressure,243.19 K,20 ± 12 kPa
same,vapor or sublimation pressure,258 K,42 ± 12 kPa
same,vapor or sublimation pressure,272.98 K,80 ± 12 kPa
same,vapor or sublimation pressure,293.35 K,170 ± 12 kPa
same,vapor or sublimation pressure,298.23 K,200 ± 12 kPa
CSC [2-thiapropane],vapor or sublimation pressure,252.89 K,8 ± 12 kPa
same,vapor or sublimation pressure,253.06 K,8 ± 12 kPa
same,vapor or sublimation pressure,272.76 K,22 ± 12 kPa
same,vapor or sublimation pressure,278.46 K,29 ± 12 kPa
same,vapor or sublimation pressure,293.16 K,53 ± 12 kPa
same,vapor or sublimation pressure,293.43 K,54 ± 12 kPa
same,vapor or sublimation pressure,313.3 K,112 ± 12 kPa
same,vapor or sublimation pressure,313.43 K,112 ± 12 kPa
